# Experimental data taken from ChEMBL document CHEMBL1152966, “Synthesis of 2alpha-propoxy-1alpha,25-dihydroxyvitamin D3 and comparison of its metabolism by human CYP24A1 and rat CYP24A1” (Bioorg Med Chem, 2009).
# Legend:
# [1] = target: T1, Vitamin D3 receptor (Bos taurus) (UniProt Q28037); test: Binding affinity to bovine thymus VDR relative to 1-alpha,25-dihydroxyvitamin D3
# T1 sequence (whole entry): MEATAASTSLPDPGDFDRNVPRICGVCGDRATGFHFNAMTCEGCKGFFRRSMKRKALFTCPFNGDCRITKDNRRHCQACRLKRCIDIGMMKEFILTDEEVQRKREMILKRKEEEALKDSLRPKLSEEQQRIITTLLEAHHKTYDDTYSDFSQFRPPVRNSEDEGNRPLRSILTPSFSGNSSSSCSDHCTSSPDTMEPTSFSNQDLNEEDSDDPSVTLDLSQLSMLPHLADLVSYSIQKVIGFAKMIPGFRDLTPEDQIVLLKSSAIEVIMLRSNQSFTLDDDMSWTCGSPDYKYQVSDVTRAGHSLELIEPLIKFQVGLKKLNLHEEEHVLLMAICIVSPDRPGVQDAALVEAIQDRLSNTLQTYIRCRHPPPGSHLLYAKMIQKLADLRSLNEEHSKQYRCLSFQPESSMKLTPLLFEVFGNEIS
# [2] = target: T2, Vitamin D-binding protein (Homo sapiens) (UniProt P02774); test: Binding affinity to vitamin D-binding protein relative to 1-alpha,25-dihydroxyvitamin D3
# T2 sequence (whole entry): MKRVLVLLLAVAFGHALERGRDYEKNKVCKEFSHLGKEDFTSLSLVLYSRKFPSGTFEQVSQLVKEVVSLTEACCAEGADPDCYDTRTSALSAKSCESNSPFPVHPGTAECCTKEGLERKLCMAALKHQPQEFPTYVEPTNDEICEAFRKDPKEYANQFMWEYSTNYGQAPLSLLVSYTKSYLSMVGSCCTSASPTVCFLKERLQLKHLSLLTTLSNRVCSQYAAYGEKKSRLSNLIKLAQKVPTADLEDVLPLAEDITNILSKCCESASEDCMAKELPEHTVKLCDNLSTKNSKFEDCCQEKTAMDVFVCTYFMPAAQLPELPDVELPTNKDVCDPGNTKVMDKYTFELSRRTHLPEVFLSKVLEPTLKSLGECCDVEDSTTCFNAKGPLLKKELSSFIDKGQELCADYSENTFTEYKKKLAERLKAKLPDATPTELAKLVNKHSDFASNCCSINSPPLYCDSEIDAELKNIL
# [3] = target: T3, 1,25-dihydroxyvitamin D(3) 24-hydroxylase, mitochondrial (Homo sapiens, UniProt Q07973); test: Binding affinity to human CYP24A1 expressed in Escherichia coli assessed as catalytic efficiency after 60 mins relative 1-alpha,25-dihydroxyvitamin D3; conditions: 1 h
# T3 sequence (Q07973 whole entry): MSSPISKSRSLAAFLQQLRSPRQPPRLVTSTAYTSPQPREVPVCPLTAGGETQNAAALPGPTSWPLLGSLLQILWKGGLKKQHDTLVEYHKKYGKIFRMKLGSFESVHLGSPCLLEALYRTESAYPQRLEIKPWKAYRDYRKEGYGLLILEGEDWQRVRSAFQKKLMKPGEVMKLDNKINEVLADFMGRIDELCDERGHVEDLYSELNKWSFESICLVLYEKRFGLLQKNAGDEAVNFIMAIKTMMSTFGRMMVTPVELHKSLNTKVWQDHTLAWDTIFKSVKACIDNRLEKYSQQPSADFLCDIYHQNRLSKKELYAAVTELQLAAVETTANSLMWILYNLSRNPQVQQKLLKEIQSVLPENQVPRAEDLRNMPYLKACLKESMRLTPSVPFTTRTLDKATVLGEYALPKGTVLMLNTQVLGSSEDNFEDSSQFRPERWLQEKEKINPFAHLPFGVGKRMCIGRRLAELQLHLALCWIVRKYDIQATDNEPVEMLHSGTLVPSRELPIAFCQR
# [4] = target: T1, Vitamin D3 receptor (Bos taurus); test: Displacement of [3H]1-alpha,25-dihydroxyvitamin D3 from calf thymus VDR by liquid scintillation counting
Structure (SMILES),Activity [1] [%],Activity [2],Activity [3] [%],Activity [4] [%]
C=C1/C(=C\C=C2/CCC[C@]3(C)[C@@H]([C@H](C)CCCC(C)(C)O)CC[C@@H]23)C[C@H](O)[C@@H](OCCC)[C@H]1O,64,,,
C=C1/C(=C\C=C2/CCC[C@]3(C)[C@@H]([C@H](C)CCCC(C)(C)O)CC[C@@H]23)C[C@H](O)[C@H](OCCCO)[C@H]1O,13,2,,
C=C1/C(=C\C=C2/CCC[C@]3(C)[C@@H]([C@H](C)CCCC(C)(C)O)CC[C@@H]23)C[C@H](O)[C@@H](OCCCO)[C@H]1O,180,,2,180
